Laboratory results as given in ChEMBL document CHEMBL5303573, “Mapping human microbiome drug metabolism by gut bacteria and their genes” (Nature, 2019).

Columns and labels:
[1] = bacteroides eggerthii, 12 h, 2 µM
Description: The drug is tested on Bacteroides eggerthii strain: DSM20697 for biotransformation. The drug concentrations were measured before and after a 12-h incubation by liquid-chromatography-coupled mass spectrometry (LC–MS)

[2] = The drug is tested on Ruminococcus torques strain: ATCC27756 for biotransformation. The drug concentrations were measured before and after a 12-h incubation by liquid-chromatography-coupled mass spectrometry (LC–MS); type: ADME; set-up: dose 2 uM, timepoint 0 vs 12 hours; conditions: 2 µM
[3] = The drug is tested on Collinsella intestinalis strain: DSM13280 for biotransformation. The drug concentrations were measured before and after a 12-h incubation by liquid-chromatography-coupled mass spectrometry (LC–MS); conditions: 2 µM
[4] = The drug is tested on Anaerotruncus colihominis strain: DSM17241 for biotransformation. The drug concentrations were measured before and after a 12-h incubation by liquid-chromatography-coupled mass spectrometry (LC–MS); conditions: 2 µM
[5] = limosilactobacillus reuteri cf48-3a, 12 h, 2 µM
Description: The drug is tested on Lactobacillus reuteri CF48-3A strain: BEI HM-102 for biotransformation. The drug concentrations were measured before and after a 12-h incubation by liquid-chromatography-coupled mass spectrometry (LC–MS)

[6] = The drug is tested on Anaerococcus hydrogenalis strain: DSM7454 for biotransformation. The drug concentrations were measured before and after a 12-h incubation by liquid-chromatography-coupled mass spectrometry (LC–MS); conditions: 2 µM
[7] = The drug is tested on Eubacterium rectale strain: ATCC33656 for biotransformation. The drug concentrations were measured before and after a 12-h incubation by liquid-chromatography-coupled mass spectrometry (LC–MS); conditions: agathobacter rectalis, 2 µM
[8] = parabacteroides distasonis, 12 h, 2 µM
Description: The drug is tested on Parabacteroides distasonis strain: ATCC8503 for biotransformation. The drug concentrations were measured before and after a 12-h incubation by liquid-chromatography-coupled mass spectrometry (LC–MS)

[9] = The drug is tested on Providencia rettgeri strain: DSM1131 for biotransformation. The drug concentrations were measured before and after a 12-h incubation by liquid-chromatography-coupled mass spectrometry (LC–MS); type: ADME; set-up: dose 2 uM, timepoint 0 vs 12 hours; conditions: 2 µM
[10] = The drug is tested on Blautia hansenii strain: DSM20583 for biotransformation. The drug concentrations were measured before and after a 12-h incubation by liquid-chromatography-coupled mass spectrometry (LC–MS); conditions: 2 µM
[11] = The drug is tested on Bacteroides dorei strain: DSM17855 for biotransformation. The drug concentrations were measured before and after a 12-h incubation by liquid-chromatography-coupled mass spectrometry (LC–MS); conditions: phocaeicola dorei, 2 µM
[12] = The drug is tested on Clostridium sp. strain: fecal isolate for biotransformation. The drug concentrations were measured before and after a 12-h incubation by liquid-chromatography-coupled mass spectrometry (LC–MS); conditions: 2 µM
[13] = The drug is tested on Bifidobacterium longum subsp. Infantis strain: CCUG52486 for biotransformation. The drug concentrations were measured before and after a 12-h incubation by liquid-chromatography-coupled mass spectrometry (LC–MS); conditions: 2 µM
[14] = The drug is tested on Bacteroides pectinophilus strain: ATCC43243 for biotransformation. The drug concentrations were measured before and after a 12-h incubation by liquid-chromatography-coupled mass spectrometry (LC–MS); conditions: 2 µM
[15] = The drug is tested on Bifidobacterium breve strain: DSM20213 for biotransformation. The drug concentrations were measured before and after a 12-h incubation by liquid-chromatography-coupled mass spectrometry (LC–MS); conditions: 2 µM
[16] = bacteroides thetaiotaomicron, 12 h, 2 µM
Description: The drug is tested on Bacteroides thetaiotaomicron strain: 7330 for biotransformation. The drug concentrations were measured before and after a 12-h incubation by liquid-chromatography-coupled mass spectrometry (LC–MS)

[17] = The drug is tested on Bacteroides sp. WH2 strain: WH2 for biotransformation. The drug concentrations were measured before and after a 12-h incubation by liquid-chromatography-coupled mass spectrometry (LC–MS); conditions: bacteroides sp. wh2, 12 h, 2 µM
[18] = bacteroides stercoris, 12 h, 2 µM
Description: The drug is tested on Bacteroides stercoris strain: ATCC43183 for biotransformation. The drug concentrations were measured before and after a 12-h incubation by liquid-chromatography-coupled mass spectrometry (LC–MS)

[19] = The drug is tested on Bacteroides finegoldii strain: DSM17565 for biotransformation. The drug concentrations were measured before and after a 12-h incubation by liquid-chromatography-coupled mass spectrometry (LC–MS); conditions: 2 µM
[20] = The drug is tested on Bacteroides ovatus strain: ATCC8483 for biotransformation. The drug concentrations were measured before and after a 12-h incubation by liquid-chromatography-coupled mass spectrometry (LC–MS); conditions: 2 µM

Row | SMILES | Bacterial Biotransformation [1] | Bacterial Biotransformation [2] | Bacterial Biotransformation [3] | Bacterial Biotransformation [4] | Bacterial Biotransformation [5] | Bacterial Biotransformation [6] | Bacterial Biotransformation [7] | Bacterial Biotransformation [8] | Bacterial Biotransformation [9] | Bacterial Biotransformation [10] | Bacterial Biotransformation [11] | Bacterial Biotransformation [12] | Bacterial Biotransformation [13] | Bacterial Biotransformation [14] | Bacterial Biotransformation [15] | Bacterial Biotransformation [16] | Bacterial Biotransformation [17] | Bacterial Biotransformation [18] | Bacterial Biotransformation [19] | Bacterial Biotransformation [20]
1 | COc1ccc2cc([C@H](C)C(=O)O)ccc2c1 [NAPROXEN] | Compound NOT metabolized | Compound NOT metabolized | Compound NOT metabolized | Compound NOT metabolized | Compound NOT metabolized | Compound NOT metabolized | Compound NOT metabolized | Compound NOT metabolized | Compound NOT metabolized | Compound NOT metabolized | Compound NOT metabolized | Compound NOT metabolized | Compound NOT metabolized | Compound NOT metabolized | Compound NOT metabolized | Compound NOT metabolized |  |  |  | 
2 | O=C1[C@H](CC[C@H](O)c2ccc(F)cc2)[C@@H](c2ccc(O)cc2)N1c1ccc(F)cc1 [EZETIMIBE] | Compound NOT metabolized | Compound NOT metabolized | Compound NOT metabolized | Compound NOT metabolized | Compound NOT metabolized | Compound NOT metabolized | Compound NOT metabolized | Compound NOT metabolized | Compound NOT metabolized | Compound NOT metabolized | Compound NOT metabolized | Compound NOT metabolized | Compound NOT metabolized | Compound NOT metabolized | Compound NOT metabolized | Compound NOT metabolized | Compound NOT metabolized | Compound NOT metabolized | Compound NOT metabolized | 
3 | CN1CCN(C(=O)O[C@H]2c3nccnc3C(=O)N2c2ccc(Cl)cn2)CC1 [ESZOPICLONE] | Compound NOT metabolized | Compound NOT metabolized | Compound NOT metabolized | Compound metabolized | Compound NOT metabolized | Compound NOT metabolized | Compound NOT metabolized | Compound NOT metabolized | Compound NOT metabolized | Compound NOT metabolized | Compound NOT metabolized | Compound metabolized | Compound metabolized | Compound NOT metabolized | Compound NOT metabolized | Compound NOT metabolized | Compound NOT metabolized | Compound NOT metabolized |  | Compound NOT metabolized
4 | CC1Cc2ccccc2N1NC(=O)c1ccc(Cl)c(S(N)(=O)=O)c1 (stereo not given) [INDAPAMIDE] | Compound NOT metabolized | Compound NOT metabolized | Compound NOT metabolized |  |  | Compound NOT metabolized | Compound NOT metabolized | Compound NOT metabolized | Compound NOT metabolized | Compound NOT metabolized | Compound NOT metabolized | Compound NOT metabolized | Compound NOT metabolized | Compound NOT metabolized | Compound NOT metabolized | Compound NOT metabolized | Compound NOT metabolized | Compound NOT metabolized |  | Compound NOT metabolized
5 | OCCN(CCO)c1nc(N2CCCCC2)c2nc(N(CCO)CCO)nc(N3CCCCC3)c2n1 [DIPYRIDAMOLE] | Compound NOT metabolized | Compound NOT metabolized | Compound NOT metabolized | Compound NOT metabolized | Compound NOT metabolized | Compound NOT metabolized | Compound NOT metabolized | Compound NOT metabolized | Compound NOT metabolized | Compound metabolized | Compound metabolized | Compound metabolized | Compound NOT metabolized |  | Compound NOT metabolized | Compound NOT metabolized | Compound NOT metabolized | Compound NOT metabolized | Compound NOT metabolized | Compound NOT metabolized
6 | C#C[C@]1(OC(C)=O)CC[C@H]2[C@@H]3CCC4=CC(=O)CC[C@@H]4[C@H]3CC[C@@]21C [NORETHINDRONE ACETATE] | Compound metabolized | Compound metabolized | Compound metabolized | Compound metabolized | Compound NOT metabolized | Compound NOT metabolized | Compound metabolized | Compound NOT metabolized | Compound NOT metabolized | Compound metabolized | Compound metabolized | Compound metabolized | Compound NOT metabolized |  | Compound NOT metabolized | Compound metabolized | Compound metabolized | Compound metabolized | Compound metabolized | Compound metabolized
7 | Cc1cc2c(cc1S(N)(=O)=O)S(=O)(=O)CCC2 | Compound NOT metabolized | Compound NOT metabolized | Compound NOT metabolized |  | Compound NOT metabolized | Compound NOT metabolized | Compound NOT metabolized | Compound NOT metabolized | Compound NOT metabolized | Compound NOT metabolized | Compound NOT metabolized | Compound NOT metabolized | Compound NOT metabolized | Compound NOT metabolized | Compound NOT metabolized | Compound NOT metabolized | Compound NOT metabolized | Compound NOT metabolized |  | Compound NOT metabolized
8 | CC1OC(OC2C(O)CC(OC3C(O)CC(OC4CCC5(C)C(CCC6C5CCC5(C)C(C7=CC(=O)OC7)CCC65O)C4)OC3C)OC2C)CC(O)C1O (stereo not given) | Compound metabolized | Compound NOT metabolized | Compound NOT metabolized |  |  | Compound NOT metabolized | Compound NOT metabolized | Compound metabolized | Compound NOT metabolized | Compound metabolized | Compound metabolized | Compound metabolized | Compound NOT metabolized | Compound NOT metabolized | Compound NOT metabolized | Compound metabolized | Compound NOT metabolized | Compound metabolized | Compound NOT metabolized | Compound metabolized
